# Results taken from ChEMBL document CHEMBL4387732, “Capsaicin-like analogue induced selective apoptosis in A2058 melanoma cells: Design, synthesis and molecular modeling” (Bioorg Med Chem, 2019).
# Activity calls are given as the source filed them. The rule behind the calls is not given here.
# Tests used:
# [1] = Selectivity index, ratio of IC50 for human T75 cells to IC50 for human A2058 cells
# SK-MEL-25 = experiment: Cytotoxicity against human SK-MEL-25 cells assessed as decrease in cell viability incubated for 24 hrs by MTT assay; format: functional, cell-based; details: SK-MEL-25, 24 h
# A2058 [2] = experiment: Cytotoxicity against human A2058 cells assessed as decrease in cell viability incubated for 24 hrs by MTT assay; format: functional, cell-based; details: A2058, 24 h
# MCF7 = experiment: Cytotoxicity against human MCF7 cells assessed as decrease in cell viability incubated for 24 hrs by MTT assay; format: functional, cell-based
# HeLa = experiment: Cytotoxicity against human HeLa cells assessed as decrease in cell viability incubated for 24 hrs by MTT assay; format: functional, cell-based
# U-87 MG = experiment: Cytotoxicity against human U87 cells assessed as decrease in cell viability incubated for 24 hrs by MTT assay; format: functional, cell-based, U-87MG ATCC
# B16-F10 [3] = experiment: Cytotoxicity against mouse B16F10 cells assessed as decrease in cell viability incubated for 24 hrs by MTT assay; format: functional, cell-based; details: B16-F10, 24 h
# [4] = Cytotoxicity against human T75 cells assessed as decrease in cell viability incubated for 24 hrs by MTT assay; format: cell-based
# HEK-293T = experiment: Effect on Ca2+ transport in human HEK293T cells incubated for 5 mins by calcium-5 fluorescence dye-based FLIPR assay; format: functional, cell-based
# [5] = target: T1, Transient receptor potential cation channel subfamily V member 6 (Homo sapiens) (UniProt Q9H1D0); experiment: Agonist activity at human TRPV6 expressed in human HEK293 cells assessed as increase in Ca2+ transport at 100 nM incubated for 5 mins by calcium-5 fluorescence dye-based FLIPR assay; format: cell-based
# T1 sequence (whole entry): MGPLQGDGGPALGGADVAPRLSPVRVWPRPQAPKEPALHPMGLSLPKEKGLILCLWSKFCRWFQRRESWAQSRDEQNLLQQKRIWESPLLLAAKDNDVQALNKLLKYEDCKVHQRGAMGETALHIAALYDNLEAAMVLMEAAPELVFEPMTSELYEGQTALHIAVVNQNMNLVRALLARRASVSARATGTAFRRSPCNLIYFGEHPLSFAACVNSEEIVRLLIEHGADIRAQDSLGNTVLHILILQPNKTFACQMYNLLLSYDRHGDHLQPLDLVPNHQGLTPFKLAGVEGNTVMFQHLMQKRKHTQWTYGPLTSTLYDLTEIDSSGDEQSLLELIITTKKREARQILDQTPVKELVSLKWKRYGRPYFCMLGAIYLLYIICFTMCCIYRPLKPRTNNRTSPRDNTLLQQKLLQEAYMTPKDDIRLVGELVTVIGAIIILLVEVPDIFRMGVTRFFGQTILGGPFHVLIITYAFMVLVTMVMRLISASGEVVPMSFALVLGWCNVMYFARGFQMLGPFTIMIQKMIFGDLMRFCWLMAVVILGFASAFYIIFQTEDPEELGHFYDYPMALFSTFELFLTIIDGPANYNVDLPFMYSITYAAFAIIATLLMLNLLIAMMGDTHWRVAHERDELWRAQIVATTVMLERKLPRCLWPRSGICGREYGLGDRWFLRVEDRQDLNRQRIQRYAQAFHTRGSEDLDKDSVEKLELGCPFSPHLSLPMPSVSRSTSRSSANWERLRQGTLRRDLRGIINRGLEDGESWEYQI
# Mus musculus = experiment: In-vivo activation of TRPV1 receptor in Swiss mouse assessed as induction of nociception by measuring paw flinching/licking response at 5.2 nmol/paw administrated via intraplantar route and measured for first 5 mins post treatment; format: functional, organism-based
# B16-F10 [6] = experiment: Cell cycle arrest in mouse B16F10 cells assessed as variation in subG0/G1 population at 12.5 to 50 uM incubated for 24 hrs by propidium iodide staining-based flow cytometric analysis; format: functional
# A2058 [7] = experiment: Cell cycle arrest in human A2058 cells assessed as accumulation of cells in subG0/G1 phase at 12.5 to 50 uM incubated for 24 hrs by propidium iodide staining-based flow cytometric analysis; format: functional
# B16-F10 [8] = experiment: Cell cycle arrest in mouse B16F10 cells assessed as increase the G0/G1 phase incubated for 24 hrs by propidium iodide staining-based flow cytometric analysis; format: functional
# A2058 [9] = experiment: Induction of apoptosis in human A2058 cells assessed as increase in cleaved caspase 3 expression level incubated for 6 hrs by Western blot analysis; format: functional, cell-based
# A2058 [10] = experiment: Cytotoxicity against human A2058 cells assessed as alteration in cell morphology incubated for 24 hrs by microscopic method; format: functional, cell-based
# A2058 [11] = experiment: Cytotoxicity against human A2058 cells assessed as loss of cell adhesion incubated for 24 hrs by microscopic method; format: functional, cell-based
# A2058 [12] = experiment: Cytotoxicity against human A2058 cells assessed as induction of withdrawal of cytoplasm incubated for 24 hrs by microscopic method; format: functional, cell-based
# A2058 [13] = experiment: Cytotoxicity against human A2058 cells assessed as loss of refringence incubated for 24 hrs by microscopic method; format: functional, cell-based
# A2058 [14] = experiment: Cytotoxicity against human A2058 cells assessed as marked formation of apoptotic bodies incubated for 24 hrs by microscopic method; format: functional, cell-based
# B16-F10 [15] = experiment: Cytotoxicity against mouse B16F10 cells assessed as cell cycle arrest incubated for 24 hrs by microscopic method; format: functional, cell-based
# A2058 [16] = experiment: Cell cycle arrest in human A2058 cells assessed as accumulation of cells in G0/G1 phase incubated for 24 hrs by propidium iodide staining-based flow cytometric analysis; format: functional
# A2058 [17] = experiment: Induction of apoptosis in human A2058 cells assessed as ratio of beta-actin to B-RAF expression incubated for 1 hrs by Western blot analysis; format: functional
# A2058 [18] = experiment: Induction of apoptosis in human A2058 cells assessed as ratio of beta-actin to B-RAF expression incubated for 3 hrs by Western blot analysis; format: functional
# A2058 [19] = experiment: Induction of apoptosis in human A2058 cells assessed as ratio of beta-actin to B-RAF expression incubated for 6 hrs by Western blot analysis; format: functional
# A2058 [20] = experiment: Induction of apoptosis in human A2058 cells assessed as ratio of beta-actin to C-RAF expression incubated for 1 hrs by Western blot analysis; format: functional
# A2058 [21] = experiment: Induction of apoptosis in human A2058 cells assessed as ratio of beta-actin to C-RAF expression incubated for 3 hrs by Western blot analysis; format: functional
# A2058 [22] = experiment: Induction of apoptosis in human A2058 cells assessed as ratio of beta-actin to C-RAF expression incubated for 6 hrs by Western blot analysis; format: functional
# A2058 [23] = experiment: Induction of apoptosis in human A2058 cells assessed as ratio of beta-actin to BCL-XL expression incubated for 1 hrs by Western blot analysis; format: functional
# A2058 [24] = experiment: Induction of apoptosis in human A2058 cells assessed as ratio of beta-actin to BCL-XL expression incubated for 3 hrs by Western blot analysis; format: functional
# A2058 [25] = experiment: Induction of apoptosis in human A2058 cells assessed as ratio of beta-actin to BCL-XL expression incubated for 6 hrs by Western blot analysis; format: functional
# A2058 [26] = experiment: Induction of apoptosis in human A2058 cells assessed as ratio of beta-actin to caspase 3 expression incubated for 1 hrs by Western blot analysis; format: functional
# A2058 [27] = experiment: Induction of apoptosis in human A2058 cells assessed as ratio of beta-actin to caspase 3 expression incubated for 3 hrs by Western blot analysis; format: functional
# A2058 [28] = experiment: Induction of apoptosis in human A2058 cells assessed as ratio of beta-actin to caspase 3 expression incubated for 6 hrs by Western blot analysis; format: functional
# [29] = target: T2, Transient receptor potential cation channel subfamily V member 1 (Homo sapiens, UniProt Q8NER1); experiment: Agonist activity at human TRPV1 expressed in HEK293T cells assessed as increase in Ca2+ transport incubated for 5 mins by calcium-5 fluorescence dye-based FLIPR assay; format: cell-based
# T2 sequence (Q8NER1 whole entry): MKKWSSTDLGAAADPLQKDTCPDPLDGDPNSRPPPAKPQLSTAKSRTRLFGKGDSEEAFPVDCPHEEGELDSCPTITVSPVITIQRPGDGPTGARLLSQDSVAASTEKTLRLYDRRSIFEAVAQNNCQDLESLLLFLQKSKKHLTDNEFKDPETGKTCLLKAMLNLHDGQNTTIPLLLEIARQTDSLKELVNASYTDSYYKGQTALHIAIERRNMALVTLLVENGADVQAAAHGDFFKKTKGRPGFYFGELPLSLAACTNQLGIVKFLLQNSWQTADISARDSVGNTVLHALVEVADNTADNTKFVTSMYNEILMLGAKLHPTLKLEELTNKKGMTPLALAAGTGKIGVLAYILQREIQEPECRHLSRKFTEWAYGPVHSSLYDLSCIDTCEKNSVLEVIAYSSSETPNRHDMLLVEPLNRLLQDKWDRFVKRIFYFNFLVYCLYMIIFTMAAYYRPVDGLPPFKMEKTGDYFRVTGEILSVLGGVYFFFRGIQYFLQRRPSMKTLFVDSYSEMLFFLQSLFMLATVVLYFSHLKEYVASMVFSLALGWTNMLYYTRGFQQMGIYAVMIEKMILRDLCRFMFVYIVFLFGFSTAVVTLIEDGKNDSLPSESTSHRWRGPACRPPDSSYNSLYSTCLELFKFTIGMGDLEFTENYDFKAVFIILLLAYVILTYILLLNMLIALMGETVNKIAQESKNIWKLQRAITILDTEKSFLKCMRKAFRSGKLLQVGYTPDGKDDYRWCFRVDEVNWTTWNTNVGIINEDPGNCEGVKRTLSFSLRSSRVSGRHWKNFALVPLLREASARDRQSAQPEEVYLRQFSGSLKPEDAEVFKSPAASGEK
# [30] = target: T2, Transient receptor potential cation channel subfamily V member 1; experiment: Agonist activity at human TRPV1 expressed in human HEK293T cells assessed as increase in Ca2+ transport at 10 uM incubated for 5 mins in presence of TRPV1 antagonist capsazepine by calcium-5 fluorescence dye-based FLIPR assay; format: cell-based
# [31] = target: T1, Transient receptor potential cation channel subfamily V member 6 (Homo sapiens); experiment: Agonist activity at human TRPV6 expressed in human HEK293 cells assessed as increase in Ca2+ transport at 50 uM incubated for 5 mins by calcium-5 fluorescence dye-based FLIPR assay; format: cell-based
# [32] = target: T1, Transient receptor potential cation channel subfamily V member 6 (Homo sapiens); experiment: Antagonist activity at human TRPV6 expressed in human HEK293 cells assessed as reduction in Ca2+ transport at 2.5 uM incubated for 5 mins by calcium-5 fluorescence dye-based FLIPR assay; format: cell-based
smiles,measurement,setting,value
COc1cc(CNC(=O)Nc2ccc([N+](=O)[O-])cc2)ccc1O,Ratio IC50,[1],>1.1
same,IC50,SK-MEL-25,98.7 µM
same,IC50,A2058 [2],98.2 µM
same,Activity,MCF7,inactive
same,Activity,HeLa,inactive
same,IC50,U-87 MG,98.5 µM
same,IC50,B16-F10 [3],> 100 µM
same,IC50,[4],> 100 µM
COc1cc(CNC(=O)CCCC/C=C/C(C)C)ccc1O [CAPSAICIN],IC50,SK-MEL-25,> 100 µM
same,IC50,A2058 [2],> 100 µM
same,IC50,U-87 MG,> 100 µM
same,IC50,B16-F10 [3],> 100 µM
same,IC50,[4],> 100 µM
same,Activity,HEK-293T,inactive
same,Activity,[5],inactive
same,Activity,Mus musculus,Active
CCCCCCNC(=S)NCc1ccc2c(c1)OCO2,Activity,B16-F10 [6],inactive
same,Ratio IC50,[1],>1.8
same,Activity,A2058 [7],Active
same,Activity,B16-F10 [8],Dose-dependent effect
same,Activity,A2058 [9],Active
same,IC50,SK-MEL-25,67.2 µM
same,IC50,A2058 [2],55.2 µM
same,Activity,MCF7,inactive
same,Activity,HeLa,inactive
same,IC50,U-87 MG,87 µM
same,IC50,B16-F10 [3],> 100 µM
same,IC50,[4],> 100 µM
same,Activity,A2058 [10],Active
same,Activity,A2058 [11],Active
same,Activity,A2058 [12],Active
same,Activity,A2058 [13],Active
same,Activity,A2058 [14],Active
same,Activity,B16-F10 [15],Active
same,Activity,A2058 [16],Dose-dependent effect
same,Ratio,A2058 [17],0.45
same,Ratio,A2058 [18],0.48
same,Ratio,A2058 [19],0.52
same,Ratio,A2058 [20],0.6
same,Ratio,A2058 [21],0.49
same,Ratio,A2058 [22],0.32
same,Ratio,A2058 [23],1.22
same,Ratio,A2058 [24],1.2
same,Ratio,A2058 [25],0.6
same,Ratio,A2058 [26],1.18
same,Ratio,A2058 [27],1.11
same,Ratio,A2058 [28],0.6
same,EC50,[29],4.62 µM
same,Activity,HEK-293T,inactive
same,Activity,[30],inactive
same,Activity,[31],inactive
same,Activity,Mus musculus,inactive
COc1cc(CNC(=O)Nc2ccc(Cl)cc2)ccc1O,Ratio IC50,[1],>1.18
same,IC50,SK-MEL-25,90.5 µM
same,IC50,A2058 [2],84.5 µM
same,Activity,MCF7,inactive
same,Activity,HeLa,inactive
same,IC50,U-87 MG,92.5 µM
same,IC50,B16-F10 [3],> 100 µM
same,IC50,[4],> 100 µM
COc1ccc(NC(=O)NCc2ccc(O)c(OC)c2)cc1,Ratio IC50,[1],>1.08
same,IC50,SK-MEL-25,91.8 µM
same,IC50,A2058 [2],92.5 µM
same,Activity,MCF7,inactive
same,Activity,HeLa,inactive
same,IC50,U-87 MG,> 100 µM
same,IC50,B16-F10 [3],> 100 µM
same,IC50,[4],> 100 µM
Cc1cccc([C@H]2CC[C@@H](N3CCN(c4cccnc4)CC3)CC2)c1,inhibition,[32],Active
